For assay [1], the system named is wildtype S. aureus RN4220. Nature of the assay: MIC / growth inhibition of wildtype S. aureus RN4220 (optical density). Type of assay: cell-based. The settings on record: Staphylococcus aureus. On the procedure: (§1) (A) Targocil MIC data for a panel of Gram-positive strains, including MRSA clinical isolates B5271 and 5340A. Growth was monitored in triplicate after 12 h at 28° C. using optical density. (B) Two dimensional drug interaction analysis between tunicamycin and targocil grown for 18 h at 30° C. […] At higher concentrations, tunicamycin is toxic because it inhibits cell wall biosynthesis. […] Varying concentrations of drug were added to […] of S. aureus RN4220 after 5 h and cell count was monitored over time at 30° C. […] Cells were grown at 28° C. for 12 h and monitored for growth using optical density (OD600). Data were normalized to the DMSO controls for each strain. (E) Two classes of mutants were examined: phage resistant (m1 3) and phage sensitive (m4-5).
A library of 55,000 small molecules was screened in duplicate at a concentration of ˜40 μM against S. aureus RN4220 and the corresponding ΔtarO strain using optical density to monitor growth. We obtained 45 initial hits and confirmed three lead compounds that inhibited the growth of the wildtype strain but had no activity against the ΔtarO strain. […] (FIG. 16A and FIG. 18) (Lazarevic V, Abellan F X, Moller S B, Karamata D, & Mauel C (2002) Microbiology-Sgm 148:815-824)
On the night before screening, a single colony of each strain was grown in TSB (Cm 10). On the day of screening, 384 well plates (Corning® 3710) were filled with […] of TSB (Cm 10). […]
The following day the plates were read using a Perkin Elmer Envision plate reader for both OD600 and fluorescence at the appropriate wavelength for Gfp ([…]) and Mcherry ([…]). Data were collected and analyzed to identify compounds that killed the wildtype strain but not the ΔtanO mutant. […]
For a secondary screen, hits from the primary screen were evaluated against wildtype and the ΔtarO mutant as described above, but the compound was investigated using a four point dose-response curve starting at a concentration of 50 μM and doing two-fold serial dilutions. […]

The subject of assay [2] is strain overexpressing S. aureus TarGH. The assay is described as follows: Growth of S. aureus RN4220 overexpressing S. aureus tarGH. Format: cell-based, Staphylococcus aureus. The settings on record: 28° C., 12 h, OD600. Here is the method: as §1
The subject of assay [3] is S. aureus RN4220 invasion of human corneal epithelial cells (HCEC). The assay is described as follows: Human corneal epithelial cell (HCEC) invasion / internalization model. Type of assay: cell-based, Staphylococcus aureus. The settings on record: wildtype S. aureus grown with 8×MIC (20 μg/mL) of targocil. On the procedure:
An overnight culture of S. aureus RN4220 and its isogenic ΔtarO strain were grown with shaking at 37° C. in either 1% DMSO or in the presence of 8×MIC (20 μg/mL) of targocil 1% DMSO. Human corneal epithelial cells (HCEC) were cultured separately in 24-well plates. Prior to incubation with HCEC, the bacteria were washed twice with keratinocyte culture media—serum free (KBM-SFM) including 8×MIC of targocil in 1% DMSO or 1% DMSO. The S. aureus strains (approximately 10^8 CFU in 1 mL of KBM-SFM including either 8×MIC of targocil 1% DMSO or 1% DMSO) were then applied to the HCEC monolayers. (The initial inoculum of each group was determined by serial dilution and plate counting.) Following incubation at 37° C. for 1 h, bacteria were removed and the monolayers were washed twice with Hank's balanced salt solution (HBSS), and covered with 1 mL of KBM-SFM containing gentamycin (100 μg/mL) and incubated at 37° C. for 1 h to kill residual extracellular bacteria. The monolayers were washed twice with HBSS, lysed, and homogenized in 1 mL of lysis solution (0.25% trypsin-0.025% Triton X-100). Lysates were serially diluted and plated on brain-heart infusion agar, and colonies were enumerated following overnight incubation at 37° C.
The data workup was done by first determining the percentage of internalized bacteria compared to the initial inoculum. […]

Results on one compound are retold here after patent US8598342B2, “Methods and compounds for antimicrobial intervention” (President and Fellows of Harvard College, priority 2008, dated 2013).

Entries after “also recorded” stand apart in the source; their conditions may differ. Read-outs that look alike come from different tables or passages of the source.

As for `CCN(CC)c1nc2c(S(=O)(=O)c3ccccc3)nnn2c2ccc(Cl)cc12` [7-chloro-N,N-diethyl-3-(phenylsulfonyl)-[1,2,3]triazolo[1,5-a]quinazolin-5-amine], the MIC in assay [1] (read-out: minimum inhibitory concentration (MIC)) was 1.3 µg/mL; in assay [1] (result of the WTA inhibitor screen, read-out: minimum inhibitory concentration) it was roughly 3 µM; in assay [1] (wildtype S. aureus RN4220, read-out: minimum inhibitory concentration (MIC)), 3 µM. The “resistance to targocil of strain overexpressing S. aureus TarGH” value in assay [2] is “partially resistant; also recorded: partial resistance”. Further, the “invasion of HCECs by targocil-treated bacteria” value in assay [3] was “behaved similarly to the ΔtarO strain”.
